Results taken from patent US20010041724A1, “METHOD FOR THE CONTROL OF FLEA BEETLES IN CANOLA” (priority 1998, published 2001).

What was measured:
[1] = system: Phyllotreta spp. (flea beetles); assay: Canola seed treatment, shot-hole damage assessment post-emergence; format: in vivo; details: 4, 7, 10 and 14 days post-emergence
Protocol: Acetamiprid is applied to canola seed at rates of 7.5, 10, and 12.5 grams of active ingredient per kg of seed. Imidacloprid is applied to canola seed at rate of 15 g/kg of seed. The seed is planted and allowed to grow. At 4, 7, 10 and 14 days post-emergence of the plant, damage is assessed for the plants by looking for shot-hole damage.

canola = assay: Canola seed treatment, yield at end of growing season; format: in vivo; details: canola seed treated with acetamiprid; end of the growing season

Question: Which results are given for `C/C(=N\C#N)N(C)Cc1ccc(Cl)nc1` [acetamiprid, (E)-N^1-[(6-chloro-3-pyridyl)methyl]-N^2-cyano-N^1-methylacetamidine]?
Answer: control of shot-hole damage relative to imidacloprid ([1]; acetamiprid 7.5, 10 and 12.5 g a.i./kg canola seed vs imidacloprid 15 g/kg seed): substantially more control than imidacloprid; control of shot-hole damage relative to two stage lindane+terbufos treatment ([1]; acetamiprid 7.5, 10 and 12.5 g a.i./kg canola seed): generally equivalent to the two stage lindane+terbufos treatment; yield of plants grown from treated seed (canola): general yield increase
